Experiments:
Cbl-b = Cbl-b (Homo sapiens (Human), UniProt Q13191); assay: Cbl-b probe displacement HTRF binding assay; settings: 0.4 nM biotinylated Cbl-b, 150 nM BODIPY probe
Procedure: The affinity with which compounds of the present disclosure bind to Cbl-b was assessed using probe displacement homologous time resolved fluorescence (HTRF) assays. The assays used a BODIPY™ conjugated probe (Example 54 from WO 2020264398) and biotinylated Cbl-b. The assays were performed in assay buffer consisting of 20 mM Hepes, 150 mM NaCl, 0.01% Triton X-100, 0.5 mM TCEP, 0.01% BSA. On the day of the assay, a 20 point, 1:2 master serial dilution of each compound was prepared in DMSO to span a final concentration range of 10 μM to 0 nM. Two hundred nanoliters of diluted compound was added to each well of a 384-well plate. Fifteen microliters of biotinylated-Cbl-b resuspended in assay buffer were added to each well and the plate incubated for 60 minutes at room temperature prior to addition of 5 μL of BODIPY™ probe in assay buffer. Final assay conditions included 0.4 nM of Cbl-b and 150 nM of BODIPY™ probe. After a further 15 minutes of incubation at room temperature, 5 μl of Streptavidin-Terbium cryptate reagent at 5-fold final concentration was added to each well of the 384-well plate. Binding of a probe to Cbl-b results in an increase of HTRF signal. HTRF signal was measured by Envision plate reader, while competition of a compound of the present disclosure with probe results in a decrease of signal. Percentage maximum activity in each test well was calculated based on DMSO (maximum activity, 0% displacement) and no protein control wells (baseline activity, 100% displacement). Binding affinity was determined from a dose response curve fitted using a standard four parameter fit equation. See Table 3 for data for compounds (Cbl-b Binding (IC50)).

Jurkat cells = assay: IL-2 secretion assay in CD3/CD28-activated Jurkat cells (AlphaLISA); type: cell-based, human; settings: CD3/CD28 activation, 24 h
Procedure: Certain compounds were also evaluated in an IL-2 secretion assay. On the day of the assay, a 16 point, 1:2 master serial dilution of each compound was prepared in Opti-MEM to span a final concentration range of […]. Assays were set up in CORNING® tissue culture-treated 384-well microplates containing 60 nL of each dilution. Jurkat cells grown in RPMI-1640 supplemented with 10% FBS, 1% Glutamax, and 1% Pen/Strep were collected, resuspended in Opti-MEM. 50,000 cells/well and added to the compound plates. After a short spin (1200 rpm for 1 min), the plates were incubated at 37° C. for 1 hour. The cells were activated by adding 15 μL of IMMUNOCULT™ Human CD3/CD28 T Cell Activator (STEMCELL Technologies) diluted in Opti-MEM. After 24 h of incubation at 37° C., aliquots of culture supernatants were transferred to OptiPlate-384 (PerkinElmer) microplates. The level of JIL-2 secretion in the supernatants was then determined using the IL-2 (human) AiphaLISA Detection Kit (PerkinElmer) according to the manufacturer's recommendations. The AiphaLISA signal was measured using an EnVision plate reader (PerkinElmer). EC50 values were determined by fitting the data to a standard 4-parameter logistic equation. See Table 3 for data for select compounds (IL-2 Secretion (EC50)).

Cbl-b, sequence (Q13191 whole entry, species assumed): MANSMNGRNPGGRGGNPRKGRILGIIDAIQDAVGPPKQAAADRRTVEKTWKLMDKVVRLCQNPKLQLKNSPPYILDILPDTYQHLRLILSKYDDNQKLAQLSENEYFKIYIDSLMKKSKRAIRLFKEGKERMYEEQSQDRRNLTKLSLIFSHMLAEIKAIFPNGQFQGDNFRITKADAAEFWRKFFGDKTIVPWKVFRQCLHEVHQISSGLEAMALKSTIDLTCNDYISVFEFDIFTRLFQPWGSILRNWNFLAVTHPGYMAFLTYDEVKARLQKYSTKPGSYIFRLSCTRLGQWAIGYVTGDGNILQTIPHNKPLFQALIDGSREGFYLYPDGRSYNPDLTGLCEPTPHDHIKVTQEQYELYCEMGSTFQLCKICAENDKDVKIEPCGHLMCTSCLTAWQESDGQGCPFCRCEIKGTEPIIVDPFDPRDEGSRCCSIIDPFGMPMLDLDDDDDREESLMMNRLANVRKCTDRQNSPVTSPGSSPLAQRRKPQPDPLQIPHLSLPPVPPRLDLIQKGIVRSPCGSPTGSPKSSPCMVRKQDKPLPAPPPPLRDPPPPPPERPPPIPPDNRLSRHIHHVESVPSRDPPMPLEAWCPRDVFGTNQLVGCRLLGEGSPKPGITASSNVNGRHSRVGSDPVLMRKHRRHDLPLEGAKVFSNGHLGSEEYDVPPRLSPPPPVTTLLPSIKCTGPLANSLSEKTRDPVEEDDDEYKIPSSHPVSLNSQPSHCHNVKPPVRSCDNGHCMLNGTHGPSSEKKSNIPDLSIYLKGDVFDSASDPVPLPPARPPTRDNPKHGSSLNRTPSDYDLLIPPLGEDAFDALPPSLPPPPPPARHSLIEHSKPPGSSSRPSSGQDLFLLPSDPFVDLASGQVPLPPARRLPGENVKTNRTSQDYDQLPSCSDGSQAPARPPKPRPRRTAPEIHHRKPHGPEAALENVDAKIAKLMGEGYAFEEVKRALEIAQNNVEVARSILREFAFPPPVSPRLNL

IC50 (Cbl-b) [nM]	EC50 (Jurkat cells; Homo sapiens) [nM]	EC50 (Jurkat cells) [nM]	SMILES
< 100	< 100	–	C[C@H]1CCCN(Cc2nc3c(C4CC4)cn(-c4cc(-c5ccc(F)cc5C(=O)N5CC(F)C5)cc(C5CC5)c4)c(=O)c3[nH]2)C1 [Example 29, 7-cyclopropyl-5-[3-cyclopropyl-5-[4-fluoro-2-(3-fluoroazetidine-1-carbonyl)phenyl]phenyl]-2-[[(3S)-3-methylpiperidin-1-yl]methyl]-3H-imidazo[4,5-c]pyridin-4-one]
< 100	100 to 1000	–	C[C@H]1CCCN(Cc2cc3c(C4CC4)cn(-c4cc(-c5ccc(F)cc5C(=O)N5CCOCC5)cc(C5CC5)n4)c(=O)c3[nH]2)C1 [Example 3, 2-{[(S)-3-methyl-1-piperidyl]methyl}-4-cyclopropyl-6-[6-cyclopropyl-4-(4-fluoro-2-morpholinocarbonylphenyl)-2-pyridyl]-1,6-dihydro-1,6-diaza-7-indenone]
< 100	100 to 1000	–	O=C(c1cc(F)ccc1-c1cc(C2CC2)nc(-n2cc(C(F)(F)F)c3cc(C4COCCN4)[nH]c3c2=O)c1)N1CC(F)C1 (racemic) [Example 55, 6-[6-cyclopropyl-4-[4-fluoro-2-(3-fluoroazetidine-1-carbonyl)phenyl]pyridin-2-yl]-2-morpholin-3-yl-4-(trifluoromethyl)-1H-pyrrolo[2,3-c]pyridin-7-one]
< 100	100 to 1000	–	CCN(C)C(=O)c1cc(F)ccc1-c1cc(C2CC2)nc(-n2cc(C3CC3)c3cc(CN4CCC[C@H](C)C4)[nH]c3c2=O)c1 [Example 13, N-ethyl-N-methyl2-[2-(2-{[(S)-3-methyl-1-piperidyl]methyl}-4-cyclopropyl-7-oxo-1,6-dihydro-1,6-diaza-6-indenyl)-6-cyclopropyl-4-pyridyl]-5-fluorobenzamide]
< 100	100 to 1000	–	COCCNCc1cc2ncn(-c3cc(-c4ccc(F)cc4C(=O)N4CC(F)(F)C4)cc(C4CC4)c3)c(=O)c2[nH]1 [Example 41, 6-{5-cyclopropyl-2′-[(3,3-difluoro-1-azetidinyl)carbonyl]-4′-fluoro-3-biphenylyl}-2-[(2-methoxyethylamino)methyl]-1,6-dihydro-1,4,6-triaza-7-indenone]
100 to 1000	100 to 1000	–	C[C@H]1CCCN(Cc2cc3c(C4CC4)cn(-c4cc(-c5ccc(F)cc5C(N)=O)cc(C5CC5)n4)c(=O)c3[nH]2)C1 [Example 18, 2-[2-(2-{[(S)-3-methyl-1-piperidyl]methyl}-4-cyclopropyl-7-oxo-1,6-dihydro-1,6-diaza-6-indenyl)-6-cyclopropyl-4-pyridyl]-5-fluorobenzamide]
< 100	< 100	–	COCCNCc1cc2ncn(-c3cc(-c4ccc(F)cc4C(=O)N4CC(F)(F)C4)cc(C4CC4)n3)c(=O)c2[nH]1 [Example 44, 6-(6-cyclopropyl-4-{2-[(3,3-difluoro-1-azetidinyl)carbonyl]-4-fluorophenyl}-2-pyridyl)-2-[(2-methoxyethylamino)methyl]-1,6-dihydro-1,4,6-triaza-7-indenone]
1000 to 5000	> 5000	–	C[C@H]1CCCN(Cc2cc3c(C4CC4)cn(-c4nc(-c5ccc(F)cc5C(=O)N5CC(F)C5)cc(C5CC5)n4)c(=O)c3[nH]2)C1 [Example 31, 4-cyclopropyl-6-[4-cyclopropyl-6-[4-fluoro-2-(3-fluoroazetidine-1-carbonyl)phenyl]pyrimidin-2-yl]-2-[[(3S)-3-methylpiperidin-1-yl]methyl]—1H-pyrrolo[2,3-c]pyridin-7-one]
< 100	100 to 1000	–	COC1CN(C(=O)c2cc(F)ccc2-c2cc(C3CC3)nc(-n3cc(C4CC4)c4cc(CN5CCC[C@H](C)C5)[nH]c4c3=O)c2)C1 [Example 11, 2-{[(S)-3-methyl-1-piperidyl]methyl}-4-cyclopropyl-6-(6-cyclopropyl-4-{4-fluoro-2-[(3-methoxy-1-azetidinyl)carbonyl]phenyl}-2-pyridyl)-1,6-dihydro-1,6-diaza-7-indenone]
100 to 1000	1000 to 5000	–	C[C@H]1CCCN(Cc2cc3c(C#N)cn(-c4cc(-c5ccc(F)cc5C(=O)N5CC(F)C5)cc(C(F)(F)F)c4)c(=O)c3[nH]2)C1 [Example 23, 2-{[(S)-3-methyl-1-piperidyl]methyl}-6-{4′-fluoro-2′-[(3-fluoro-1-azetidinyl)carbonyl]-5-(trifluoromethyl)-3-biphenylyl}-7-oxo-1,6-dihydro-1,6-diaza-4-indenecarbonitrile]
< 100	< 100	–	O=C(c1cc(F)ccc1-c1cc(C2CC2)nc(-n2cnc3cc(CNCCC(F)(F)F)[nH]c3c2=O)c1)N1CC(F)(F)C1 [Example 39, 3-[6-cyclopropyl-4-[2-(3,3-difluoroazetidine-1-carbonyl)-4-fluorophenyl]pyridin-2-yl]-6-[(3,3,3-trifluoropropylamino)methyl]-5H-pyrrolo[3,2-d]pyrimidin-4-one]
< 100	< 100	–	C[C@H]1CCCN(Cc2[nH]c3c(=O)n(-c4cc(-c5ccc(F)cc5C(=O)N5CC(F)C5)cc(C5CC5)n4)cc(C#N)c3c2Cl)C1 [Example 46, 2-{[(S)-3-methyl-1-piperidyl]methyl}-3-chloro-6-(6-cyclopropyl-4-{4-fluoro-2-[(3-fluoro-1-azetidinyl)carbonyl]phenyl}-2-pyridyl)-7-oxo-1,6-dihydro-1,6-diaza-4-indenecarbonitrile]
100 to 1000	1000 to 5000	–	C[C@H]1CCCN(Cc2cc3c(C#N)cn(-c4cc(-c5cccnc5C(=O)N(C)C)cc(C5CC5)n4)c(=O)c3[nH]2)C1 [Example 20, N,N-dimethyl-2′-(2-{[(S)-3-methyl-1-piperidyl]methyl}-4-cyano-7-oxo-1,6-dihydro-1,6-diaza-6-indenyl)-6′-cyclopropyl-[3,4′-bipyridyl]-2-carboxamide]
< 100	100 to 1000	–	COCCN(C)Cc1cc2ncn(-c3cc(-c4ccc(F)cc4C(=O)N4CC(F)(F)C4)cc(C4CC4)n3)c(=O)c2[nH]1 [Example 38, 3-[6-cyclopropyl-4-[2-(3,3-difluoroazetidine-1-carbonyl)-4-fluorophenyl]pyridin-2-yl]-6-[[2-methoxyethyl(methyl)amino]methyl]-5H-pyrrolo[3,2-d]pyrimidin-4-one]
< 100	> 5000	–	CC1CCCN1C(=O)c1cc(F)ccc1-c1cc(C2CC2)nc(-n2cc(C3CC3)c3cc(CN4CCC[C@H](C)C4)[nH]c3c2=O)c1 (stereo partly drawn) [Example 9, 2-{[(S)-3-methyl-1-piperidyl]methyl}-4-cyclopropyl-6-(6-cyclopropyl-4-{4-fluoro-2-[(2-methyl-1-pyrrolidinyl)carbonyl]phenyl}-2-pyridyl)-1,6-dihydro-1,6-diaza-7-indenone]
< 100	–	–	CO[C@@H](C)CN(C)Cc1cc2ncn(-c3cc(-c4ccc(F)cc4C(=O)N4CC(F)(F)C4)cc(C4CC4)n3)c(=O)c2[nH]1 [Example 40, 3-[6-cyclopropyl-4-[2-(3,3-difluoroazetidine-1-carbonyl)-4-fluorophenyl]pyridin-2-yl]-6-[[[(2S)-2-methoxypropyl]-methylamino]methyl]-5H-pyrrolo[3,2-d]pyrimidin-4-one]
< 100	100 to 1000	–	CNC(=O)c1cc(F)ccc1-c1cc(C2CC2)nc(-n2cc(C3CC3)c3cc(CN4CCC[C@H](C)C4)[nH]c3c2=O)c1 [Example 6, N-methyl2-[2-(2-{[(S)-3-methyl-1-piperidyl]methyl}-4-cyclopropyl-7-oxo-1,6-dihydro-1,6-diaza-6-indenyl)-6-cyclopropyl-4-pyridyl]-5-fluorobenzamide]
–	–	< 100	COCCNCc1cc2ncn(-c3cc(-c4ccc(F)cc4C(=O)N4CC(F)(F)C4)cc(C4CC4)c3)c(=O)c2[nH]1 [Example 42, 6-{5-cyclopropyl-2′-[(3,3-difluoro-1-azetidinyl)carbonyl]-4′-fluoro-3-biphenylyl}-2-[(2-methoxyethylamino)methyl]-1,6-dihydro-1,4,6-triaza-7-indenone]
